Source: the NIST ThermoML archive (doi:10.1016/j.jct.2005.05.003)

Assay: mn = molality of the nth substance listed, in mol/kg
Conditions: Liquid, Vibrating tube method

[Ca+2].[Cl-].[Cl-] [calcium chloride] + CO
Conditions | mass density [kg/m3]
298.27 K, 184 kPa, m1 = 2.393 | 977.23
298.27 K, 5004 kPa, m1 = 2.393 | 980.74
298.27 K, 9983 kPa, m1 = 2.393 | 984.25
298.27 K, 14989 kPa, m1 = 2.393 | 987.66
298.27 K, 19998 kPa, m1 = 2.393 | 990.95
298.27 K, 25001 kPa, m1 = 2.393 | 994.14
298.27 K, 30011 kPa, m1 = 2.393 | 997.26
298.27 K, 34980 kPa, m1 = 2.393 | 1000.22
298.27 K, 39985 kPa, m1 = 2.393 | 1003.15
298.28 K, 175 kPa, m1 = 0.2853 | 814.28
298.28 K, 179 kPa, m1 = 0.6588 | 848.89
298.28 K, 202 kPa, m1 = 0.1082 | 797.82
298.28 K, 4988 kPa, m1 = 0.6588 | 853.15
298.28 K, 5000 kPa, m1 = 0.2853 | 818.77
298.28 K, 5011 kPa, m1 = 0.1082 | 802.48
298.28 K, 9997 kPa, m1 = 0.6588 | 857.39
298.28 K, 10009 kPa, m1 = 0.2853 | 823.22
298.28 K, 10011 kPa, m1 = 0.1082 | 807.08
298.28 K, 14985 kPa, m1 = 0.2853 | 827.41
298.28 K, 15002 kPa, m1 = 0.1082 | 811.44
298.28 K, 15012 kPa, m1 = 0.6588 | 861.47
298.28 K, 19991 kPa, m1 = 0.1082 | 815.57
298.28 K, 20010 kPa, m1 = 0.6588 | 865.31
298.28 K, 20018 kPa, m1 = 0.2853 | 831.46
298.28 K, 24989 kPa, m1 = 0.2853 | 835.29
298.28 K, 24991 kPa, m1 = 0.6588 | 868.99
298.28 K, 24997 kPa, m1 = 0.1082 | 819.63
298.28 K, 29982 kPa, m1 = 0.2853 | 838.98
298.28 K, 29989 kPa, m1 = 0.1082 | 823.45
298.28 K, 29991 kPa, m1 = 0.6588 | 872.56
298.28 K, 34983 kPa, m1 = 0.6588 | 875.99
298.28 K, 34994 kPa, m1 = 0.2853 | 842.53
298.28 K, 35017 kPa, m1 = 0.1082 | 827.11
298.28 K, 39984 kPa, m1 = 0.6588 | 879.31
298.28 K, 39998 kPa, m1 = 0.1082 | 830.67
298.28 K, 40005 kPa, m1 = 0.2853 | 845.94
323.22 K, 232 kPa, m1 = 0.6588 | 824.35
323.22 K, 237 kPa, m1 = 2.393 | 952.79
323.22 K, 245 kPa, m1 = 0.1082 | 773.87
323.22 K, 4998 kPa, m1 = 0.6588 | 829.19
323.22 K, 5003 kPa, m1 = 2.393 | 956.69
323.22 K, 5013 kPa, m1 = 0.1082 | 779.2
323.22 K, 9984 kPa, m1 = 0.1082 | 784.43
323.22 K, 9988 kPa, m1 = 2.393 | 960.6
323.22 K, 10013 kPa, m1 = 0.6588 | 834.04
323.22 K, 14985 kPa, m1 = 2.393 | 964.38
323.22 K, 14994 kPa, m1 = 0.1082 | 789.4
323.22 K, 15000 kPa, m1 = 0.6588 | 838.59
323.22 K, 19991 kPa, m1 = 0.1082 | 794.09
323.22 K, 20010 kPa, m1 = 0.6588 | 842.96
323.22 K, 20014 kPa, m1 = 2.393 | 968.03
323.22 K, 24988 kPa, m1 = 0.6588 | 847.08
323.22 K, 24989 kPa, m1 = 0.1082 | 798.56
323.22 K, 25005 kPa, m1 = 2.393 | 971.52
323.22 K, 29988 kPa, m1 = 0.1082 | 802.81
323.22 K, 29988 kPa, m1 = 2.393 | 974.89
323.22 K, 30009 kPa, m1 = 0.6588 | 851.08
323.22 K, 34980 kPa, m1 = 2.393 | 978.17
323.22 K, 34991 kPa, m1 = 0.1082 | 806.89
323.22 K, 35005 kPa, m1 = 0.6588 | 854.89
323.22 K, 39995 kPa, m1 = 0.1082 | 810.79
323.22 K, 39995 kPa, m1 = 0.6588 | 858.56
323.22 K, 40017 kPa, m1 = 2.393 | 981.39
323.23 K, 226 kPa, m1 = 0.2853 | 790.12
323.23 K, 5015 kPa, m1 = 0.2853 | 795.26
323.23 K, 9993 kPa, m1 = 0.2853 | 800.3
323.23 K, 14993 kPa, m1 = 0.2853 | 805.07
323.23 K, 20003 kPa, m1 = 0.2853 | 809.62
323.23 K, 25013 kPa, m1 = 0.2853 | 813.96
323.23 K, 30015 kPa, m1 = 0.2853 | 818.08
323.23 K, 34988 kPa, m1 = 0.2853 | 821.99
323.23 K, 40005 kPa, m1 = 0.2853 | 825.78
348.23 K, 303 kPa, m1 = 2.393 | 928.79
348.23 K, 4983 kPa, m1 = 2.393 | 933.12
348.23 K, 9990 kPa, m1 = 2.393 | 937.54
348.23 K, 15005 kPa, m1 = 2.393 | 941.76
348.23 K, 20000 kPa, m1 = 2.393 | 945.79
348.23 K, 24993 kPa, m1 = 2.393 | 949.65
348.23 K, 29995 kPa, m1 = 2.393 | 953.38
348.23 K, 35000 kPa, m1 = 2.393 | 956.97
348.23 K, 39984 kPa, m1 = 2.393 | 960.44
348.24 K, 308 kPa, m1 = 0.1082 | 748.93
348.24 K, 321 kPa, m1 = 0.6588 | 799.27
348.24 K, 326 kPa, m1 = 0.2853 | 765.1
348.24 K, 4986 kPa, m1 = 0.6588 | 804.77
348.24 K, 5001 kPa, m1 = 0.2853 | 770.94
348.24 K, 5010 kPa, m1 = 0.1082 | 755.08
348.24 K, 9985 kPa, m1 = 0.1082 | 761.11
348.24 K, 9995 kPa, m1 = 0.6588 | 810.3
348.24 K, 9998 kPa, m1 = 0.2853 | 776.76
